Columns and labels:
Assay type in all cases: in vivo, human
[1] = test system: patient who had Parkinson's Disease with tremor at rest and gait disturbance; assay: Treatment of a Parkinson's Disease patient with tremor at rest and gait disturbance with sildenafil (Example II); settings: one patient
Description: (§1) A patient who had Parkinson's Disease for fifteen years and who suffered from tremor at rest and gait disturbance was treated with the method for decreasing neurologic symptomatology according to the present invention. […] The patient was initially treated with 25 mg of sildenafil per day.

[2] = test system: patient who had Parkinson's Disease and severe dyskinesia; assay: Treatment of a Parkinson's Disease patient with severe dyskinesia with sildenafil (Example I); settings: one patient
Description: as §1, with “twelve” for “fifteen”, “severe dyskinesia affecting all their extremities” for “tremor at rest”, “their head and neck for five years” for “gait disturbance”, “50” for “25”

[3] = test system: patients with Parkinson's Disease and dyskinesias; assay: Treatment of seven patients with Parkinson's Disease and dyskinesias with sildenafil (Example III)
Description: Seven additional patients with Parkinson's Disease and dyskinesias were treated with sildenafil at a dose of 25 mg per day in addition to their usual Parkinson's Disease medications. The patents were all Caucasian and ranged in age from between 55 to 70 years. Four of the patients were men and three were women.

[4] = 25 mg sildenafil per day, after five months of treatment, on levodopa

SMILES: CCCc1nn(C)c2c(=O)[nH]c(-c3cc(S(=O)(=O)N4CCN(C)CC4)ccc3OCC)nc12 [sildenafil]
- gait disturbance [1, 4]: improved significantly
- tremor [1, 4]: ceased
- signs and symptoms of Parkinson's Disease ([1]; after more than seven months of treatment, sildenafil 25 mg three times per day, levodopa 250 mg per day): significantly improved
- dyskinesias during treatment ([2]; 50 mg sildenafil per day initially, on levodopa): significantly reduced
- signs and symptoms of Parkinson's Disease ([2]; after more than one year of treatment, sildenafil decreased to 25 mg, levodopa 300-400 mg per day): significantly improved
- patients reporting facial flushing ([3]; 25 mg per day): one
- patients with any significant side effects of sildenafil treatment ([3]; 25 mg per day): None
- patients with any worsening of their Parkinson's Disease symptoms ([3]; 25 mg per day): None
- patients with significant improvement in their dyskinesias ([3]; 25 mg per day in addition to usual Parkinson's Disease medications): Five of the seven

From patent US6380267B1, “Composition and method for decreasing neurologic symptomatology” (priority 1999, dated 2002)
